Results published in ChEMBL document CHEMBL1221353, “Synthesis and evaluation of amides surrogates of dopamine D3 receptor ligands” (Bioorg Med Chem Lett, 2010).

What follows are molecules tested against D(2) dopamine receptor (Homo sapiens, UniProt P14416) (assay: Displacement of [3H]spiperone from human dopamine D2S receptor expressed in HEK293 cells). Conditions: not given.
Type: cell-based

Chain of D(2) dopamine receptor (P14416 whole entry): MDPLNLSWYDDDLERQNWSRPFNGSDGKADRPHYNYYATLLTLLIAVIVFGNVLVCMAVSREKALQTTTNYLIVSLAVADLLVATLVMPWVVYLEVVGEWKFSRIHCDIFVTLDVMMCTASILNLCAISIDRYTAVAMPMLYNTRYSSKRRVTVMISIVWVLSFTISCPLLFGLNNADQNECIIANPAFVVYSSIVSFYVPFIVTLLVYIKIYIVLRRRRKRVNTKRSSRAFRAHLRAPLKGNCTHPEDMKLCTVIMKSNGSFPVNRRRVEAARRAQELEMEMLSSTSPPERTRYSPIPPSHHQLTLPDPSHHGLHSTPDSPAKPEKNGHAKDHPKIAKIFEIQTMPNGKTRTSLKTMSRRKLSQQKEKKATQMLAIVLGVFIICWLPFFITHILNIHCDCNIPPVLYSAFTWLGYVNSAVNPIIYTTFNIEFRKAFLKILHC

First: Clc1cccc(N2CCN(CCCCNc3ccc(-c4ccccc4)cn3)CC2)c1Cl
Second: Clc1cccc(N2CCN(CCCCNc3cc(-c4ccccc4)ccn3)CC2)c1Cl
The Ki of the first is 4.5-fold lower: 0.041 µM for the first, 0.184 µM for the second.

First: Fc1ccccc1N1CCN(CCCCNc2ccccn2)CC1
Second: Cc1ccccc1N1CCN(CCCCNc2ccccn2)CC1
The Ki of the first is 2.9-fold lower: 0.133 µM for the first, 0.383 µM for the second.

`FC(F)(F)c1cccc(N2CCN(CCCCNc3ccccn3)CC2)c1` and `FC(F)(F)c1cccc(N2CCN(CCCCNc3cc(-c4ccccc4)ccn3)CC2)c1` are within 1.5-fold of each other in Ki: 0.198 µM for the first, 0.194 µM for the second.

`FC(F)(F)c1cccc(N2CCN(CCCCNc3nccc4ccccc34)CC2)c1` and `FC(F)(F)c1cccc(N2CCN(CCCCNc3ccc4ccccc4n3)CC2)c1` are within 1.5-fold of each other in Ki: 0.058 µM for the first, 0.053 µM for the second.

Compared with `Fc1ccccc1N1CCN(CCCCNc2cc(-c3ccccc3)ccn2)CC1`, `Fc1ccccc1N1CCN(CCCCNc2ccc(-c3ccccc3)cn2)CC1` is 2.5-fold lower in Ki: 0.309 µM for the first, 0.122 µM for the second. The second binds more tightly here.

`COc1ccccc1N1CCN(CCCCNc2ccccn2)CC1` and `Cc1cccc(N2CCN(CCCCNc3ccccn3)CC2)c1C` are within 1.5-fold of each other in Ki: 0.198 µM for the first, 0.207 µM for the second.

First: FC(F)(F)c1cccc(N2CCN(CCCCNc3ncc(-c4ccccc4)o3)CC2)c1
Second: FC(F)(F)c1cccc(N2CCN(CCCCNc3ccc(-c4ccccc4)cn3)CC2)c1
The Ki of the first is 16-fold higher: 2.32 µM for the first, 0.143 µM for the second. The second binds more tightly here.

Compared with `FC(F)(F)c1cccc(N2CCN(CCCCNc3nc(-c4ccccc4)cs3)CC2)c1`, `COc1ccccc1N1CCN(CCCCNc2nccc3ccccc23)CC1` is 35-fold lower in Ki: 2.43 µM for the first, 0.07 µM for the second.

In the case of `Clc1cccc(N2CCN(CCCCNc3ccc4ccccc4n3)CC2)c1Cl`, the Ki is reported as 0.023 µM.

What follows are molecules tested on Mus musculus (assay: Absolute bioavailability in mouse plasma at 10 mg/kg dose po and iv). Conditions: in vivo.
Type: ADME, organism-based

In the case of `FC(F)(F)c1cccc(N2CCN(CCCCNc3cc(-c4ccccc4)ccn3)CC2)c1`, the bioavailability is reported as 0.4.

These molecules were tested against T1, Alpha-1A adrenergic receptor (Homo sapiens, UniProt P35348) (assay: Displacement of [3H]prazosin from human adrenergic alpha1A receptor). Conditions: not given.
T1 sequence (P35348 whole entry): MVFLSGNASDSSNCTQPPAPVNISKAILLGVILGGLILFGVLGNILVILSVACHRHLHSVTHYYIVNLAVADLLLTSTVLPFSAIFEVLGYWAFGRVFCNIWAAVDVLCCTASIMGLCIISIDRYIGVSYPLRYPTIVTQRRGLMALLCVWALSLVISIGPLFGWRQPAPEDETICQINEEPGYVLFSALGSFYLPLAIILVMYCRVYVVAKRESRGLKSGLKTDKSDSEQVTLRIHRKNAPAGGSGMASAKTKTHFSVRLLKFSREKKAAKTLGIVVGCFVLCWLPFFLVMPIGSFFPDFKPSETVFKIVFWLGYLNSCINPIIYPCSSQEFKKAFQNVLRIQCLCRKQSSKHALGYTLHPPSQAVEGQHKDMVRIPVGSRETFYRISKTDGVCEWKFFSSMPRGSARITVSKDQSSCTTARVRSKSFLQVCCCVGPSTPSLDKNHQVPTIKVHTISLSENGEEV

First: Clc1cccc(N2CCN(CCCCNc3ccc(-c4ccccc4)cn3)CC2)c1Cl
Second: Clc1cccc(N2CCN(CCCCNc3cc(-c4ccccc4)ccn3)CC2)c1Cl
The Ki of the first is 2.8-fold lower: 0.021 µM for the first, 0.058 µM for the second. The first binds more tightly here.

`Fc1ccccc1N1CCN(CCCCNc2ccccn2)CC1` and `Cc1ccccc1N1CCN(CCCCNc2ccccn2)CC1` are within 1.5-fold of each other in Ki: 0.017 µM for the first, 0.014 µM for the second.

Going from `FC(F)(F)c1cccc(N2CCN(CCCCNc3ccccn3)CC2)c1` to `FC(F)(F)c1cccc(N2CCN(CCCCNc3cc(-c4ccccc4)ccn3)CC2)c1`, the Ki falls from 0.593 µM to 0.119 µM (5-fold). The second binds more tightly here.

First: FC(F)(F)c1cccc(N2CCN(CCCCNc3nccc4ccccc34)CC2)c1
Second: FC(F)(F)c1cccc(N2CCN(CCCCNc3ccc4ccccc4n3)CC2)c1
The Ki of the first is 5.7-fold higher: 0.068 µM for the first, 0.012 µM for the second. The second binds more tightly here.

`Fc1ccccc1N1CCN(CCCCNc2cc(-c3ccccc3)ccn2)CC1` and `Fc1ccccc1N1CCN(CCCCNc2ccc(-c3ccccc3)cn2)CC1` are within 1.5-fold of each other in Ki: 0.009 µM for the first, 0.01 µM for the second.

Compared with `COc1ccccc1N1CCN(CCCCNc2ccccn2)CC1`, `Cc1cccc(N2CCN(CCCCNc3ccccn3)CC2)c1C` is 1.7-fold higher in Ki: 0.023 µM for the first, 0.04 µM for the second.

`FC(F)(F)c1cccc(N2CCN(CCCCNc3ncc(-c4ccccc4)o3)CC2)c1` and `FC(F)(F)c1cccc(N2CCN(CCCCNc3ccc(-c4ccccc4)cn3)CC2)c1` are within 1.5-fold of each other in Ki: 0.272 µM for the first, 0.227 µM for the second.

Compared with `FC(F)(F)c1cccc(N2CCN(CCCCNc3nc(-c4ccccc4)cs3)CC2)c1`, `COc1ccccc1N1CCN(CCCCNc2nccc3ccccc23)CC1` is 12-fold lower in Ki: 0.072 µM for the first, 0.006 µM for the second. The second binds more tightly here.

`Clc1cccc(N2CCN(CCCCNc3ccccn3)CC2)c1Cl` and `Clc1cccc(N2CCN(CCCCNc3ccc4ccccc4n3)CC2)c1Cl` are within 1.5-fold of each other in Ki: 0.033 µM for the first, 0.046 µM for the second.

Going from `Clc1cccc(N2CCN(CCCCNc3nccc4ccccc34)CC2)c1Cl` to `COc1ccccc1N1CCN(CCCCNc2ccc3ccccc3n2)CC1`, the Ki falls from 0.06 µM to 0.006 µM (10-fold). The second binds more tightly here.

Organism: Homo sapiens
Assay: Selectivity ratio of Ki for human dopamine D2S receptor to Ki for human dopamine D3 receptor
Conditions: not given

First: Clc1cccc(N2CCN(CCCCNc3ccc(-c4ccccc4)cn3)CC2)c1Cl
Second: Clc1cccc(N2CCN(CCCCNc3cc(-c4ccccc4)ccn3)CC2)c1Cl
The Ratio Ki of the first is lower: 69 for the first, 334 for the second.

`Fc1ccccc1N1CCN(CCCCNc2ccccn2)CC1` and `Cc1ccccc1N1CCN(CCCCNc2ccccn2)CC1` are the same in Ratio Ki: 12 for the first, 12 for the second.

First: FC(F)(F)c1cccc(N2CCN(CCCCNc3ccccn3)CC2)c1
Second: FC(F)(F)c1cccc(N2CCN(CCCCNc3cc(-c4ccccc4)ccn3)CC2)c1
The Ratio Ki of the first is lower: 12 for the first, 256 for the second.

Going from `FC(F)(F)c1cccc(N2CCN(CCCCNc3nccc4ccccc34)CC2)c1` to `FC(F)(F)c1cccc(N2CCN(CCCCNc3ccc4ccccc4n3)CC2)c1`, the Ratio Ki falls from 58 to 33.

Going from `Fc1ccccc1N1CCN(CCCCNc2cc(-c3ccccc3)ccn2)CC1` to `Fc1ccccc1N1CCN(CCCCNc2ccc(-c3ccccc3)cn2)CC1`, the Ratio Ki falls from 206 to 49.

First: COc1ccccc1N1CCN(CCCCNc2ccccn2)CC1
Second: Cc1cccc(N2CCN(CCCCNc3ccccn3)CC2)c1C
The Ratio Ki of the first is higher: 247 for the first, 17 for the second.

Going from `FC(F)(F)c1cccc(N2CCN(CCCCNc3ncc(-c4ccccc4)o3)CC2)c1` to `FC(F)(F)c1cccc(N2CCN(CCCCNc3ccc(-c4ccccc4)cn3)CC2)c1`, the Ratio Ki falls from 242 to 130.

First: FC(F)(F)c1cccc(N2CCN(CCCCNc3nc(-c4ccccc4)cs3)CC2)c1
Second: COc1ccccc1N1CCN(CCCCNc2nccc3ccccc23)CC1
The Ratio Ki of the first is higher: 183 for the first, 70 for the second.

`Clc1cccc(N2CCN(CCCCNc3ccc4ccccc4n3)CC2)c1Cl` gave a Ratio Ki of 39.

Each molecule was assayed against D(3) dopamine receptor (Homo sapiens, UniProt P35462) (assay: biochemical). Conditions: not given.
Chain of D(3) dopamine receptor (P35462 whole entry): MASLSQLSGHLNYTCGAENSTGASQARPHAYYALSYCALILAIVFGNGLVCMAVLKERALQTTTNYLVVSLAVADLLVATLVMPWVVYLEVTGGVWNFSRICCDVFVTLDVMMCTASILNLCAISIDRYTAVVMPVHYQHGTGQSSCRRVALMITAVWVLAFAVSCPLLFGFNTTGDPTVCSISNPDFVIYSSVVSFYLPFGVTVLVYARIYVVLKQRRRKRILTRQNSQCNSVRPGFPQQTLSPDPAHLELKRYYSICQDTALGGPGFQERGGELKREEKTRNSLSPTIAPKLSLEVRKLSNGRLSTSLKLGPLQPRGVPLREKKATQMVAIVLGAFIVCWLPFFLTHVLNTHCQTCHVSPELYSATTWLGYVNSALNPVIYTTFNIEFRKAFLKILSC

First: Clc1cccc(N2CCN(CCCCNc3ccc(-c4ccccc4)cn3)CC2)c1Cl
Second: Fc1ccccc1N1CCN(CCCCNc2ccc(-c3ccccc3)cn2)CC1
The Ki of the first is 4.2-fold lower: 0.00059 µM for the first, 0.0025 µM for the second. The first binds more tightly here.

Going from `Fc1ccccc1N1CCN(CCCCNc2ccccn2)CC1` to `Cc1ccccc1N1CCN(CCCCNc2ccccn2)CC1`, the Ki rises from 0.011 µM to 0.032 µM (2.9-fold).

Compared with `FC(F)(F)c1cccc(N2CCN(CCCCNc3ccccn3)CC2)c1`, `FC(F)(F)c1cccc(N2CCN(CCCCNc3nccc4ccccc34)CC2)c1` is 17-fold lower in Ki: 0.017 µM for the first, 0.001 µM for the second. The second binds more tightly here.

`Fc1ccccc1N1CCN(CCCCNc2cc(-c3ccccc3)ccn2)CC1` and `FC(F)(F)c1cccc(N2CCN(CCCCNc3ccc(-c4ccccc4)cn3)CC2)c1` are within 1.5-fold of each other in Ki: 0.0015 µM for the first, 0.0011 µM for the second.

First: COc1ccccc1N1CCN(CCCCNc2ccccn2)CC1
Second: Cc1cccc(N2CCN(CCCCNc3ccccn3)CC2)c1C
The Ki of the first is 15-fold lower: 0.0008 µM for the first, 0.012 µM for the second. The first binds more tightly here.

`FC(F)(F)c1cccc(N2CCN(CCCCNc3ncc(-c4ccccc4)o3)CC2)c1` and `FC(F)(F)c1cccc(N2CCN(CCCCNc3nc(-c4ccccc4)cs3)CC2)c1` are within 1.5-fold of each other in Ki: 0.0096 µM for the first, 0.013 µM for the second.

Compared with `Clc1cccc(N2CCN(CCCCNc3ccc4ccccc4n3)CC2)c1Cl`, `FC(F)(F)c1cccc(N2CCN(CCCCNc3ccc4ccccc4n3)CC2)c1` is 2.7-fold higher in Ki: 0.0006 µM for the first, 0.0016 µM for the second.

Work on `COc1ccccc1N1CCN(CCCCNc2nccc3ccccc23)CC1` yielded a Ki of 0.001 µM.

What follows are molecules tested on Rattus norvegicus (assay: Absolute bioavailability in rat plasma at 10 mg/kg, po and 3 mg/kg, iv). Conditions: in vivo.
Type: ADME, organism-based

Work on `FC(F)(F)c1cccc(N2CCN(CCCCNc3cc(-c4ccccc4)ccn3)CC2)c1` yielded a bioavailability of 0.65.

Organism: Homo sapiens
Assay: Selectivity ratio of Ki for human adrenergic alpha1A receptor to Ki for human dopamine D3 receptor
Conditions: not given

Compared with `Clc1cccc(N2CCN(CCCCNc3ccc(-c4ccccc4)cn3)CC2)c1Cl`, `Clc1cccc(N2CCN(CCCCNc3cc(-c4ccccc4)ccn3)CC2)c1Cl` is higher in Ratio Ki: 35 for the first, 106 for the second.

First: Fc1ccccc1N1CCN(CCCCNc2ccccn2)CC1
Second: Cc1ccccc1N1CCN(CCCCNc2ccccn2)CC1
The Ratio Ki of the first is higher: 1.5 for the first, 0.4 for the second.

Compared with `FC(F)(F)c1cccc(N2CCN(CCCCNc3ccccn3)CC2)c1`, `FC(F)(F)c1cccc(N2CCN(CCCCNc3cc(-c4ccccc4)ccn3)CC2)c1` is higher in Ratio Ki: 35 for the first, 157 for the second.

Going from `FC(F)(F)c1cccc(N2CCN(CCCCNc3nccc4ccccc34)CC2)c1` to `FC(F)(F)c1cccc(N2CCN(CCCCNc3ccc4ccccc4n3)CC2)c1`, the Ratio Ki falls from 68 to 7.5.

Going from `Fc1ccccc1N1CCN(CCCCNc2cc(-c3ccccc3)ccn2)CC1` to `Fc1ccccc1N1CCN(CCCCNc2ccc(-c3ccccc3)cn2)CC1`, the Ratio Ki falls from 6 to 4.

Compared with `COc1ccccc1N1CCN(CCCCNc2ccccn2)CC1`, `Cc1cccc(N2CCN(CCCCNc3ccccn3)CC2)c1C` is lower in Ratio Ki: 29 for the first, 3 for the second.

Going from `FC(F)(F)c1cccc(N2CCN(CCCCNc3ncc(-c4ccccc4)o3)CC2)c1` to `FC(F)(F)c1cccc(N2CCN(CCCCNc3ccc(-c4ccccc4)cn3)CC2)c1`, the Ratio Ki rises from 28 to 207.

Compared with `FC(F)(F)c1cccc(N2CCN(CCCCNc3nc(-c4ccccc4)cs3)CC2)c1`, `COc1ccccc1N1CCN(CCCCNc2nccc3ccccc23)CC1` is higher in Ratio Ki: 5.4 for the first, 6.3 for the second.

`Clc1cccc(N2CCN(CCCCNc3ccc4ccccc4n3)CC2)c1Cl` was tested, and the Ratio Ki was 77.
